Assay results as given in ChEMBL document CHEMBL3769336, “Discovery of a Chemical Tool Inhibitor Targeting the Bromodomains of TRIM24 and BRPF” (J Med Chem, 2016).
Activity calls are given as the source filed them. No cut-off for these calls is given here.

Tests used:
[1] = target: T1, Transcription intermediary factor 1-alpha (Homo sapiens, UniProt O15164); assay: Inhibition of N-terminal His6-SUMO-1-tagged recombinant human TRIM24 bromodomain expressed in Escherichia coli BL21(DE3)-R3-pRARE2 cells by Alpha Screen assay
T1 sequence (O15164 whole entry): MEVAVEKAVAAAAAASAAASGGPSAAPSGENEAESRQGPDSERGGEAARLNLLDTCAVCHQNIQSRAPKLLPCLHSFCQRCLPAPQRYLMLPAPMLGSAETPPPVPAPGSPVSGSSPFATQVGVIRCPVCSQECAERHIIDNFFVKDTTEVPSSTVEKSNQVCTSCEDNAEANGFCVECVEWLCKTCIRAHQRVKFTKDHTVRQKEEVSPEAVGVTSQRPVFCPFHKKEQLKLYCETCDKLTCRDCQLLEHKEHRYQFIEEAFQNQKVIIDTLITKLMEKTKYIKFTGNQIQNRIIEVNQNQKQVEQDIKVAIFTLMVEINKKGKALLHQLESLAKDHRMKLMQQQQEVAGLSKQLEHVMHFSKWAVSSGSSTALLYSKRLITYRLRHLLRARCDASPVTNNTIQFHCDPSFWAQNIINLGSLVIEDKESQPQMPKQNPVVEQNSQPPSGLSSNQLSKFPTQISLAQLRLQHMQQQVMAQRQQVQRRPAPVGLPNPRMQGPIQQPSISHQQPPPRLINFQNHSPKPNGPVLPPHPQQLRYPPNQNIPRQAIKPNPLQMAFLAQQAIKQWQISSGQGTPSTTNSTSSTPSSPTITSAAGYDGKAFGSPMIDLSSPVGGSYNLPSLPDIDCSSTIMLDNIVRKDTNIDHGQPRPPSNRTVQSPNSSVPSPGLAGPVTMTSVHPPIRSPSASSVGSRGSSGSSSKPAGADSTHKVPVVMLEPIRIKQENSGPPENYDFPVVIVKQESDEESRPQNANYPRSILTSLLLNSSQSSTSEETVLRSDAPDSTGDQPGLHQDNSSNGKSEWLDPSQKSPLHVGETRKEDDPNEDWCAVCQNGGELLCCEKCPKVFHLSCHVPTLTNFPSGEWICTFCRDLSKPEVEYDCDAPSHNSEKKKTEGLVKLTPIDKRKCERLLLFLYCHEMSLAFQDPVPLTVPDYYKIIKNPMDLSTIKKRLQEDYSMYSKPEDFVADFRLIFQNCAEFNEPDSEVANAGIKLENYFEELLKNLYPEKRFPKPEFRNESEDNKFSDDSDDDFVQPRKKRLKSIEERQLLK

[2] = target: T2, Bromodomain-containing protein 1 (Homo sapiens, UniProt O95696); assay: Binding affinity to BRPF2 BRD1 (unknown origin) by isothermal titration calorimetry
T2 sequence (O95696 whole entry): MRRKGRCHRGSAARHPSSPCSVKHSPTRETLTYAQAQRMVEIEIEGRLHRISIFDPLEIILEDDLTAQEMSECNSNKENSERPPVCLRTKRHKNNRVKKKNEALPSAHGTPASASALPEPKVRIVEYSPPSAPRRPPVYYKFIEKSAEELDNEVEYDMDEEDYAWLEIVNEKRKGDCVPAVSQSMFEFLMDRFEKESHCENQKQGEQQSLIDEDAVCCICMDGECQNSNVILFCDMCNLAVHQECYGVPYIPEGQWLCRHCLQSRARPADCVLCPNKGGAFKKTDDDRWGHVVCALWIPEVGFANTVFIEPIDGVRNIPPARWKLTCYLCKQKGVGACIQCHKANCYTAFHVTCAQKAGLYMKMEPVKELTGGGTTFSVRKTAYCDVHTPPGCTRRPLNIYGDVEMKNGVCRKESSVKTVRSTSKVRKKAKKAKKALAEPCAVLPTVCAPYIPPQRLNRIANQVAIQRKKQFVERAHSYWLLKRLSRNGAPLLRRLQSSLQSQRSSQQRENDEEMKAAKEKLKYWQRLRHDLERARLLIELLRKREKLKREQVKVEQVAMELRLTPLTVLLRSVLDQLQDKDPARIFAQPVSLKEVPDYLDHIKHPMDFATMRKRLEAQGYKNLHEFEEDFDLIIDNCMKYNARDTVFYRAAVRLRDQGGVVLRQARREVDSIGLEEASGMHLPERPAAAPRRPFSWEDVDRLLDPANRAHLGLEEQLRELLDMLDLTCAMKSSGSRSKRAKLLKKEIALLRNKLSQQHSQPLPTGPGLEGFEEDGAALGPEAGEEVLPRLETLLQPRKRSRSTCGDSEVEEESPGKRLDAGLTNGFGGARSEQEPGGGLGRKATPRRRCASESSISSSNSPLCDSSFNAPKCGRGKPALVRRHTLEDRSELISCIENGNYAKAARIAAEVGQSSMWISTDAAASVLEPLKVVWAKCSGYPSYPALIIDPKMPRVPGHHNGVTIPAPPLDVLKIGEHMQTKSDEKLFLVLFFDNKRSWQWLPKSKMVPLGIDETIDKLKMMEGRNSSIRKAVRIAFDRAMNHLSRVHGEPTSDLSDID

[3] = target: T1, Transcription intermediary factor 1-alpha; assay: Binding affinity to N-terminal His6-SUMO-1-tagged recombinant human TRIM24 bromodomain expressed in Escherichia coli BL21(DE3)-R3-pRARE2 cells by isothermal titration calorimetry
[4] = target: T2, Bromodomain-containing protein 1; assay: Inhibition of BRPF2 BRD1 (unknown origin) by Alpha Screen assay
JJN-3 = assay: Cytotoxicity against human JJN-3 cells at 5x10'-5 M to 8x10'-8 M after 72 hrs by CellTiter-Glo assay; format: functional, cell-based

- IC50 [1]: 430 nM
- Kd [2]: 1130 nM
- Kd [3]: 222 nM
- IC50 [4]: 1750 nM
SMILES: COc1ccc(Oc2cc3c(cc2NS(=O)(=O)c2ccc(OC)c(OC)c2)n(C)c(=O)n3C)cc1
- Activity (JJN-3): inactive
